Activity calls are given as the source filed them.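 Rule for the calls: active = AC50 no more than tenfold above the top dose tested, or full inhibition at every dose with a flat fit (cut at about 19 µM in these data); inconclusive = flat curve fit with inhibition between 30% and 70%, or poor fit; inactive = AC50 more than tenfold above the top dose tested.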
Tested on: HMLE_sh_eGFP viability, CellTiter-Glo luminescence, 72 h
Assay: cytotoxicity in HMLE control line with eGFP shRNA, dose response, counter-screen for HMLE_sh_ECad selective toxicity project, cell-based, HMLE_sh_eGFP, luminescence (AID 463074);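 note: counterscreen control line to flag general toxicity for the HMLE_sh_ECad screen; potency for loss of viability as luminescence drops below DMSO wells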

Row | Structure (SMILES) | AC50
1 | COC(=O)Nc1ccc(S(=O)(=O)N2c3ccccc3CCC2C)cc1 (stereo not given) | 1.42 µM
2 | CCCCCCCC/C=C\CCCCCCCC(=O)NCCc1ccc(O)c(O)c1 | 4.61 µM
3 | CC(C)(C)c1ccc(NC(=O)N2CCCN(c3c(Cl)cncc3Cl)CC2)cc1 | 2.85 µM
4 | CCC1C=CC=CC[C@H](C)[C@@H](O)[C@](C)(O)C(=O)[C@@H](C)[C@H](O)[C@@H](C)C(=O)[C@H](C)[C@@H](O)[C@H](C)C=CC(=O)OC2[C@@H](C)C(CC1)OC1(CC[C@@H](C)C(C[C@H](C)O)O1)[C@@H]2C (stereo not given in full) | 3.2 µM
5 | COc1ccc(Br)cc1C(=O)Nc1cccc(C)c1 | > 19.5 µM (inactive)
6 | CCCCCC(=O)Nc1nc(C)c(-c2csc(Nc3cc(OC)ccc3OC)n2)s1 | 2.11 µM
7 | CC(C)(C)NC(=O)Cn1nnc(-c2ccc(OCc3c(F)cccc3Cl)cc2)n1 | 1.79 µM
8 | Cc1cccc(N(C)C(=O)c2cc3c(=O)[nH]c4ccc(C)cc4c3s2)c1 | 2.52 µM
9 | CN(C(=O)COC(=O)/C=C/c1cccc([N+](=O)[O-])c1)C1CCS(=O)(=O)C1 (stereo not given) | 4.61 µM
10 | O=C1NC(=Nc2ccc(Cl)cc2)SC1Cc1cccc(Cl)c1Cl (stereo not given) | > 19.5 µM (inactive)
11 | COc1cc2c(-c3ccc(O)cc3)nc3c(c(C)nn3-c3ccccc3)c2cc1OC | 3.92 µM
12 | Cc1ccc(NS(=O)(=O)c2sc3ccc(Cl)cc3c2C)cc1 | 3.78 µM
13 | COc1ccc(N(CC(=O)Nc2cc(C)ccc2C)S(=O)(=O)c2c(C)noc2C)cc1 | > 19.5 µM (inactive)
14 | COc1ccc(NS(=O)(=O)c2ccc(O)c(NC(=O)c3cc4c(C)nn(-c5ccc(F)cc5)c4s3)c2)cc1 | 2.49 µM
15 | Cc1cc(C(C)(C)C)ccc1OCCCCN1CCCC1 | 4.22 µM
16 | CCOC(=O)C1=C(N)Oc2cc(O)ccc2C1c1cccc(Cl)c1 (stereo not given) | 4.06 µM
17 | C[C@@H]1CC[C@H]2C(=O)N3[C@@H](CC[C@@H](C)[C@@H]3c3ccc(Br)cc3)C(=O)N2[C@H]1c1ccc(Br)cc1 | 4.41 µM
18 | C1=C(c2sc3ccccc3c2-c2ccc(OCCN3CCOCC3)cc2)CCCC1 | 1.94 µM
19 | C=CCSC(=C(C#N)C#N)c1cc2c([nH]1)CCCC2 | 13.5 µM
20 | S=C(NCC1CCCCC1)Nc1ccc(Oc2ccccc2)cc1 | 5.41 µM
21 | O=C1c2ccccc2NC(c2ccc(-c3ccc(Br)cc3)o2)N1O (stereo not given) | 5.06 µM
22 | CC(C)c1ccc(NC(=O)C(c2ccccc2)N(C)C(=O)CCc2c[nH]c3ccccc23)cc1 (stereo not given) | 7.92 µM
23 | CSc1nc2ccccc2cc1/C=C(\C#N)c1cccc(Cl)c1 | 2.73 µM
24 | CCOC(=O)C(=O)NNc1ccc(F)cc1 | 1.45 µM
25 | CN(CCO)c1cc(Sc2nc3ccccc3s2)c2nonc2c1[N+](=O)[O-] | 2.49 µM
26 | O=C(Nc1ccn(Cc2ccccc2F)n1)c1ccc(COc2ccccc2Cl)cc1 | 3.52 µM
27 | O=C(NCc1nc(-c2ccc(C(F)(F)F)cc2)no1)Nc1ccc(OC(F)(F)F)cc1 | 3.12 µM

Row | Structure (SMILES) | AC50
28 | S=c1[nH]nc(COc2ccccc2)n1/N=C/C(Cl)=C/c1ccccc1 | 3.55 µM
29 | CCN1CCN(c2cc(C)c3cc(NC(=S)N4CCN(c5ccc(F)cc5)CC4)ccc3n2)CC1 | 4.67 µM
30 | NC(=O)CC(NC(=O)Cc1cccc2ccccc12)c1ccc(NCc2ccc(F)c(F)c2)c([N+](=O)[O-])c1 (stereo not given) | 10.7 µM
31 | O=C(NC(=S)Nc1ccccc1N1CCCCC1)c1ccc(F)cc1Cl | 2.84 µM
32 | CC(=O)c1c(C)oc2c1C(=O)c1ccccc1C2=O | 4.4 µM
33 | Cc1ccc(S(=O)(=O)Nc2ccc(C(OC(=O)c3ccccc3[N+](=O)[O-])(C(F)(F)F)C(F)(F)F)cc2)cc1 | 7.19 µM
34 | C=C1CCc2c([nH]c3ccc(OCC(C)C)cc23)C1=O | 5.57 µM
35 | O=[N+]([O-])c1ccc(COc2ccc(-c3[nH]ncc3-c3ccccc3)c(O)c2)cc1 | 8.38 µM
36 | O=c1c(Cl)c(NCc2ccccc2Cl)cnn1C12CC3CC(CC(C3)C1)C2 | 2.43 µM
37 | O=C(Nc1ccc(Br)c(C(F)(F)F)c1)c1ccc(C(F)(F)F)cc1 | 3.03 µM
38 | CN(C)c1ccc(/C=C(\Cl)c2nc3ccccc3s2)cc1 | 2.85 µM
39 | Cc1ccc(NC2=C(Cl)C(=O)c3ccccc3C2=O)cc1 | 1.95 µM
40 | Cc1cccc(-n2ncc3c(N4CCCc5ccccc54)ncnc32)c1 | 7.68 µM
41 | Cc1noc(C)c1COc1cccc(C(=O)Nc2ccc(OCc3ccccc3)cc2)c1 | 15.5 µM
42 | O=C(NCc1ccco1)c1nc2c(nnn2Cc2ccccc2Cl)c(=O)[nH]1 | 1.92 µM
43 | N=c1c2c(ncn1Cc1ccco1)Oc1c(ccc3ccccc13)C2c1ccccc1 (stereo not given) | 3.92 µM
44 | O=C(Cn1ncc(Cl)c(Cl)c1=O)N1CCN(S(=O)(=O)c2ccc3ccccc3c2)CC1 | 6.11 µM
45 | COc1ccc(-c2sc3cc(OC)c(OC)cc3c2-c2ccc(O)cc2)cc1 | 3.7 µM
46 | COc1ccc(NS(=O)(=O)c2ccc3nc(COc4cccc5ccccc45)[nH]c3c2)cc1 | 4.75 µM
47 | O=C(Nc1cccc(NC(=O)c2ccc([N+](=O)[O-])o2)c1)c1ccco1 | 7.23 µM
48 | O=C1C=C(Nc2ccc(F)cc2)c2ccccc2C1=O | 6.78 µM
49 | Cc1[nH]nc2c1C(c1ccc(-c3ccc(Cl)cc3)o1)C(C#N)=C(N)O2 (stereo not given) | 7.25 µM
50 | COc1ccccc1C(CCNCc1ccc(N(C)C)cc1)c1ccc(OC(C)C)cc1 (stereo not given) | 3.58 µM
51 | O=C(COC(=O)c1c2c(nc3ccccc13)/C(=C\c1cccs1)CCC2)Nc1ccccc1 | 2.77 µM
52 | O=C(CN1c2ccccc2Sc2ccccc21)NNC(=O)Nc1ccc(Cl)c(Cl)c1 | 3.46 µM
53 | Cc1ccc(NC(=O)/C=C/c2ccc([N+](=O)[O-])s2)c(C)c1 | 2.3 µM
54 | c1ccc(CN2CCC(Nc3nc(-c4ccccc4)nc4ccccc34)CC2)cc1 | 6.67 µM

Row | Structure (SMILES) | AC50
55 | CC(C)(CN1CCN(Cc2ccccc2)CC1)NS(=O)(=O)c1ccccc1 | 8.78 µM
56 | Cn1c(-c2ccsc2)c(-c2cccs2)c2cc(Br)ccc21 | 5.92 µM
57 | CCC(C)n1c(-c2cccs2)nc2nc3ccccc3nc21 (stereo not given) | 15.5 µM
58 | Cc1ccc(C(C)C)c(OCc2nn(CC(=O)c3ccc(Cl)cc3)c3[n+]2CCCCC3)c1 | 3.22 µM
59 | Cc1cccc(NS(=O)(=O)c2ccc(C3CCCCC3)cc2)c1 | 5.18 µM
60 | CCCCn1c(=O)c(C(=O)NCc2ccccc2)c(O)c2ccccc21 | 8.36 µM
61 | CC/C(=N\Nc1ccccc1)c1c(O)n(-c2ccc(OC)cc2)c(=O)[nH]c1=O | 2.13 µM
62 | Cc1nn(Cc2ccc(C(=O)Nc3nccs3)cc2)c(C)c1Cl | 0.661 µM
63 | CCNC(=S)N/N=C/c1cn(Cc2ccc(F)cc2)c2ccccc12 | 10.9 µM
64 | CCCCCNCC(=O)Nc1cccc(C(=O)Nc2cccc(C(F)(F)F)c2)c1 | 13.2 µM
65 | CC(C)c1ccc(/C=N/NC(=O)c2ccccn2)cc1 | > 19.5 µM (inactive)
66 | O=C(CSc1ncnc2nc[nH]c12)Nc1nnc(SCc2ccc(Cl)c(Cl)c2)s1 | 7.45 µM
67 | Cc1ccc(N/N=C/c2cccnc2)cc1 | 6.14 µM
68 | CC(C)c1ccc(N2C(=O)NC(=O)/C(=C/C=C/c3ccco3)C2=O)cc1 | 2.29 µM
69 | CCCCOC(=O)c1c(C)oc2ccc(NS(=O)(=O)c3ccc4c5c(cccc35)C(=O)N4)cc12 | 9.12 µM
70 | COc1cc(OC)cc(-c2sc3ccc(OC)cc3c2C#CCO)c1 | 6.89 µM
71 | CCCn1nc([N+](=O)[O-])c(C(C#N)c2nc3ccccc3o2)c(Cl)c1=O (stereo not given) | 5.81 µM
72 | C[C@]12CC[C@H](O)C[C@H]1CC[C@@H]1[C@@H]2CC[C@]2(C)[C@@H](C3=CC(=O)OC3)CC[C@]12O | 0.234 µM
73 | Cc1ccc(COc2ccc(Br)cc2/C=N/O)cc1 | 5.23 µM
74 | O=C(/C=C/c1c(F)cccc1Cl)c1ccc(O)cc1 | 7.97 µM
75 | CC1(C)Cc2ccccc2C(CSc2ccccc2C(=O)O)=N1 | 17.2 µM
76 | Oc1cccc(-c2nc3c4c(ncn3n2)-c2ccccc2CC42CCCC2)c1 | 1.5 µM
77 | COc1ccc(N/N=C(/C(C)=O)N2CCCc3ccccc32)cc1 | 13.2 µM
78 | Cc1nc(-c2ccccc2)sc1C(=O)/C=C/c1ccc(Cl)cc1 | 7.62 µM
79 | CC(C)N(C(=O)CSc1nc2ccccc2n1-c1ccccc1)C(C)C | 7.62 µM
80 | CN(C)c1ccc(/C=N/NC(=O)C(=O)/C=C2\NC3(CCCC3)Cc3ccccc32)cc1 | 6.5 µM
81 | CC(=O)O[C@H]1[C@@H](O)[C@H](O)[C@H](Oc2c(O)c(C)c3c4c2[C@@H](C)CC[C@@H]4[C@@H](C)C[C@H]3C=C(C)C)O[C@H]1C | 3.57 µM

Row | Structure (SMILES) | AC50
82 | Cc1ccc(Cl)cc1N1CCN(C(CC(C)C)c2nnnn2CC2CCCO2)CC1 (stereo not given) | 0.808 µM
83 | c1ccc(NNC2=NCCCCC2)cc1 | 2.89 µM
84 | Cc1sc(-n2c(C)cc(/C=C3\SC(=S)NC3=O)c2C)c(C#N)c1C | 4.72 µM
85 | CCSc1nnc(NC(=O)NC(CC)(C(F)(F)F)C(F)(F)F)s1 | 12 µM
86 | N/C(=N\N=C/c1ccc(F)cc1)N/N=C\c1ccc(F)cc1 | 5.13 µM
87 | Clc1ccc(Nc2ncnc3ccc(Br)cc23)cc1 | 17.5 µM
88 | CC(=O)Nc1ccc(-c2csc(NC(=O)Cc3ccccc3F)n2)cc1 | 11.5 µM
89 | CC1(C)Cc2ccccc2/C(=C/C(=O)c2ccccc2)N1 | 7.27 µM
90 | Cc1cc(S(=O)(=O)c2ccc([N+](=O)[O-])cn2)ccc1Br | 3.99 µM
91 | NC(=O)CC(NC(=O)c1ccc(Br)cc1)c1ccc(NCc2ccc(F)cc2)c([N+](=O)[O-])c1 (stereo not given) | 4.61 µM
92 | COc1ccc(-c2cc(C(=O)N3CC4(C)CC3CC(C)(C)C4)no2)cc1OC (stereo not given) | 10.6 µM
93 | CC(=O)Oc1ccc(C2=NN(c3ccccc3)C(c3ccccc3)C2)cc1 (stereo not given) | 4.18 µM
94 | CCOC(=O)C1=C(C)N2C(=C(C#N)[C@@H]1c1ccc(C(=O)OC)cc1)SC[C@@]2(O)C(C)(C)C | 4.79 µM
95 | Cc1ccc(Cl)cc1NC(=O)c1ccccc1OCC(=O)Nc1ccc(Cl)cc1 | 11.5 µM
96 | COC(=O)C1C(=O)C2=C(CC1C)NC(=O)CC2c1cccc(C)c1 (stereo not given) | > 19.5 µM (inactive)
97 | O=C(NNc1ccccc1Br)C(=O)n1ccc2ccccc21 | 8.69 µM
98 | COC(=O)c1cc(=O)n(Cc2cccs2)c(=Nc2ccc(F)cc2)s1 | 3.58 µM
99 | CC1=CC(C)[C@H](/C=N/n2c(=O)[nH]c3c([nH]c4ccc(Br)cc43)c2=O)C(C)C1 (stereo not given in full) | 1.46 µM
100 | COc1ccc(CCCC(=O)N/N=C/c2cccc(OC)c2O)cc1C | 3.13 µM
101 | NC(=O)CC(NC(=O)Cc1ccc(Br)cc1)c1ccc(NCc2cc(F)ccc2F)c([N+](=O)[O-])c1 (stereo not given) | 3.36 µM
102 | COc1ccc2sc(-c3ccc(N(C)C)cc3)c(C#Cc3cncn3C)c2c1 | 2.18 µM
103 | CCCCCCCCNC(C)C(O)c1ccc(SC(C)C)cc1 (stereo not given) | 3.83 µM
104 | O=C(Nc1ccc(O)c(-c2nc3ccccc3o2)c1)C1(c2ccc(Br)cc2)CCCC1 | > 19.5 µM (inactive)
105 | CC(C)(C)c1cc(CSC(=S)NC2CCS(=O)(=O)C2)c(Br)c(C(C)(C)C)c1 (stereo not given) | 3.8 µM
